These results are taken from US9789098B2, “Nootropic compositions for improving memory performance” (Pharnext, priority 2012, dated 2017).

One may read the Tmax as the time at which the peak concentration occurs.

One series is described as follows: clinical. The note with it: human, in vivo, po. The text has this: Pharmacodynamics of baclofen and acamprosate have been established in the frame of clinical trial.
For series [1], the system named is 11 month-old C57B1/6 mice. The series is described as follows: % of alternation in T-maze test, healthy mice (short term memory). The format is in vivo. The note with it: administered once 2 hours before the test, very low doses (mix doses 4 and 5), FIG. 2. As to the method: 11 month-old C57B1/6 mice are used. They are group-housed (5-10 mice per cage) and maintained in a room with controlled temperature (21-22° C.) and a reversed light-dark cycle (12 h/12 h; lights on: 17:30-05:30; lights off: 05:30-17:30) with food and water available ad libitum.
Drugs are solubilized in water and freshly prepared just before each gavage or ip administration and are kept under agitation.
Doses of drugs of the invention are exemplified in table 4. Concerning acamprosate calcium, the indicated doses refer to the doses of the salt of molecule.
Between day 0 and day 7, drug combinations or the vehicle solution were administered twice daily (at 8:00 am and 6:00 pm). One animal group receives donepezil (reference compound 0.3 mg/kg) at 8:00 am and the vehicle at 6:00 pm.
On day 8, all animals were tested for the % of alternation performance in the T-maze test, 2 hours after the administration of drugs combination or the vehicle solution.
The eve of the test, drug combinations or the vehicle solution were administered at 8:00 am and 6:00 pm. […]
The effect of the administration of combinations on short term memory was assessed for different durations of treatment (7 days, 1 day, 2 hours before the test). […]
The percent spontaneous alternation was calculated as the number of spontaneous alternations divided by the number of free-choice trials. […]

Molecules are shown by their SMILES.

As to `NCC(CC(=O)O)c1ccc(Cl)cc1` (racemic) [baclofen, Baclofen], the Tmax in “clinical” was 1.5 h. Also, the “improvement of learning and working memory performances vs vehicle” value in series [1] is given as “no significant improvement”.
For `CC(=O)NCCCS(=O)(=O)O` [acamprosate, Acamprosate], in that order: 1.5 to 2 h and “no significant improvement”.
